# Measurements: PubChem BioAssay (NCI)
#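 Step 1: Grow cells in 96-well plates. Step 2: Expose to compound for 48 hours at 5 concentrations. Step 3: Interpolate endpoints linearly; if unreached, use highest concentration. GI50 marks 50% less growth. At the TGI there is no net growth.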
# What was measured:
# Experiment in all cases: NCI anticancer screen, dose series, 48 h
# [1] = system: T-47D breast
# [2] = system: MOLT-4 leukemia
# [3] = system: RPMI-8226 leukemia
# [4] = system: SW-620 colon
# [5] = system: OVCAR-3 ovarian
# [6] = system: BT-549 breast
# [7] = system: SN12C renal
# [8] = system: ACHN renal
# [9] = system: NCI-H460 lung
# [10] = system: MDA-MB-435
# [11] = system: UACC-62 melanoma
# [12] = system: PC-3 prostate
# [13] = system: SNB-75 CNS
# [14] = system: SK-MEL-5 melanoma
# [15] = system: SK-MEL-2 melanoma
# [16] = system: TK-10 renal
# [17] = system: MDA-MB-231 breast
# [18] = system: U251 CNS
# [19] = system: MALME-3M melanoma
# [20] = system: KM12 colon
# [21] = system: NCI/ADR-RES ovarian
# [22] = system: HOP-62 NSCLC
# [23] = system: CAKI-1 renal
# [24] = system: SF-295 CNS
# [25] = system: UACC-257 melanoma
# [26] = system: SK-OV-3 ovarian
# [27] = system: MCF7 breast
# [28] = system: HS 578T breast
# [29] = system: SF-539 CNS
# [30] = system: DU-145 prostate
# [31] = system: UO-31 renal
# [32] = system: HT29 colon
# [33] = system: 786-0 renal
# [34] = system: A498 renal
# [35] = system: SR leukemia
# [36] = system: NCI-H522 lung
# [37] = system: SK-MEL-28 melanoma
# [38] = system: NCI-H226 lung
# [39] = system: IGROV1 ovarian
# [40] = system: SNB-19 CNS
# [41] = system: NCI-H23 lung
# [42] = system: COLO 205 colon
# [43] = system: HOP-92 NSCLC
# [44] = system: CCRF-CEM leukemia
# [45] = system: A549 NSCLC
# [46] = system: RXF 393 renal
# [47] = system: LOX IMVI melanoma
# [48] = system: K-562 leukemia
# [49] = system: HCC-2998 colon
# [50] = system: HCT-15 colon
# [51] = system: HL-60(TB) leukemia
# [52] = system: SF-268 CNS
# [53] = system: HCT-116 colon
# [54] = system: OVCAR-5 ovarian
# [55] = system: OVCAR-8 ovarian
# [56] = system: OVCAR-4 ovarian
# [57] = system: M14 melanoma
# [58] = system: EKVX NSCLC
smiles,measurement,setting,value
COc1cc(C(=O)Nc2ccc(-c3nc4ccccc4[nH]3)cc2)cc(OC)c1OC,GI50,[1],5.39 µM
same,TGI,[1],23.4 µM
same,GI50,[2],9.82 µM
same,TGI,[2],45.4 µM
same,GI50,[3],6.35 µM
same,TGI,[3],30.6 µM
same,GI50,[4],16.9 µM
same,TGI,[4],42.8 µM
same,GI50,[5],12.4 µM
same,TGI,[5],27.9 µM
same,GI50,[6],12.7 µM
same,TGI,[6],29.2 µM
same,GI50,[7],10.3 µM
same,TGI,[7],25.5 µM
same,GI50,[8],8.23 µM
same,TGI,[8],23.1 µM
same,GI50,[9],5.74 µM
same,TGI,[9],22.7 µM
same,GI50,[10],13.5 µM
same,TGI,[10],31 µM
same,GI50,[11],9.89 µM
same,TGI,[11],24.4 µM
same,GI50,[12],13.6 µM
same,TGI,[12],34 µM
same,GI50,[13],10.9 µM
same,TGI,[13],24.6 µM
same,GI50,[14],11.5 µM
same,TGI,[14],25.9 µM
same,GI50,[15],14.5 µM
same,TGI,[15],29.5 µM
same,GI50,[16],15.1 µM
same,TGI,[16],29.3 µM
same,GI50,[17],9.38 µM
same,TGI,[17],24 µM
same,GI50,[18],10.2 µM
same,TGI,[18],23.4 µM
same,GI50,[19],12 µM
same,TGI,[19],31.6 µM
same,GI50,[20],9.22 µM
same,TGI,[20],32.5 µM
same,GI50,[21],13 µM
same,TGI,[21],73.4 µM
same,GI50,[22],6.44 µM
same,TGI,[22],23.9 µM
same,GI50,[23],10.9 µM
same,TGI,[23],25.3 µM
same,GI50,[24],10.7 µM
same,TGI,[24],25.5 µM
same,GI50,[25],17.8 µM
same,TGI,[25],38.9 µM
same,GI50,[26],16.5 µM
same,TGI,[26],30.6 µM
same,GI50,[27],11.2 µM
same,TGI,[27],30.6 µM
same,GI50,[28],3.54 µM
same,TGI,[28],19.3 µM
same,GI50,[29],11.6 µM
same,TGI,[29],27.9 µM
same,GI50,[30],11.2 µM
same,TGI,[30],25.3 µM
same,GI50,[31],3.92 µM
same,TGI,[31],16.1 µM
same,GI50,[32],5.95 µM
same,TGI,[32],19.6 µM
same,GI50,[33],11.8 µM
same,TGI,[33],28.6 µM
same,GI50,[34],7.07 µM
same,TGI,[34],25.4 µM
same,GI50,[35],6.92 µM
same,TGI,[35],40.9 µM
same,GI50,[36],7.75 µM
same,TGI,[36],29.9 µM
same,GI50,[37],13.7 µM
same,TGI,[37],28.6 µM
same,GI50,[38],15.3 µM
same,TGI,[38],36.7 µM
same,GI50,[39],14.1 µM
same,TGI,[39],31.5 µM
same,GI50,[40],11.6 µM
same,TGI,[40],29.1 µM
same,GI50,[41],11.9 µM
same,TGI,[41],34.6 µM
same,GI50,[42],15.3 µM
same,TGI,[42],39.1 µM
same,GI50,[43],6.41 µM
same,TGI,[43],24.2 µM
same,GI50,[44],7.9 µM
same,TGI,[44],39.3 µM
same,GI50,[45],11.2 µM
same,TGI,[45],27.8 µM
same,GI50,[46],10.7 µM
same,TGI,[46],30.9 µM
same,GI50,[47],11.2 µM
same,TGI,[47],30.9 µM
same,GI50,[48],7.39 µM
same,TGI,[48],27.4 µM
same,GI50,[49],14.6 µM
same,TGI,[49],36.6 µM
same,GI50,[50],6.61 µM
same,TGI,[50],24.4 µM
same,GI50,[51],17.8 µM
same,TGI,[51],56.4 µM
same,GI50,[52],14.2 µM
same,TGI,[52],37.4 µM
same,GI50,[53],10.7 µM
same,TGI,[53],25.3 µM
same,GI50,[54],11.7 µM
same,TGI,[54],26.3 µM
same,GI50,[55],7.53 µM
same,TGI,[55],28.5 µM
same,GI50,[56],11.8 µM
same,TGI,[56],36.9 µM
COc1ccc(C2CC(c3cccc(Nc4ccncc4)c3)=NN2c2ccccc2)cc1 (stereo not given),GI50,[1],2.3 µM
same,TGI,[1],5.83 µM
same,GI50,[2],2.07 µM
same,TGI,[2],4.63 µM
same,GI50,[4],1.81 µM
same,TGI,[4],3.43 µM
same,GI50,[5],1.86 µM
same,TGI,[5],3.52 µM
same,GI50,[6],4.94 µM
same,TGI,[6],20.6 µM
same,GI50,[7],1.72 µM
same,TGI,[7],3.23 µM
same,GI50,[8],1.81 µM
same,TGI,[8],3.28 µM
same,GI50,[9],1.8 µM
same,TGI,[9],3.34 µM
same,GI50,[10],1.78 µM
same,TGI,[10],3.49 µM
same,GI50,[11],1.74 µM
same,TGI,[11],3.21 µM
same,GI50,[57],1.87 µM
same,TGI,[57],3.74 µM
same,GI50,[12],1.68 µM
same,TGI,[12],3.38 µM
same,GI50,[13],1.55 µM
same,TGI,[13],5.23 µM
same,GI50,[14],1.8 µM
same,TGI,[14],3.28 µM
same,GI50,[15],2.39 µM
same,TGI,[15],5.01 µM
same,GI50,[16],2.12 µM
same,TGI,[16],4.43 µM
same,GI50,[17],1.62 µM
same,TGI,[17],3.04 µM
same,GI50,[18],1.94 µM
same,TGI,[18],3.8 µM
same,GI50,[19],1.62 µM
same,TGI,[19],3.08 µM
same,GI50,[20],1.79 µM
same,TGI,[20],3.5 µM
same,GI50,[21],1.74 µM
same,TGI,[21],3.46 µM
same,GI50,[22],2.25 µM
same,TGI,[22],5.81 µM
same,GI50,[23],1.66 µM
same,TGI,[23],3.18 µM
same,GI50,[24],1.8 µM
same,TGI,[24],3.32 µM
same,GI50,[25],2 µM
same,TGI,[25],4.17 µM
same,GI50,[26],5.53 µM
same,TGI,[26],20.9 µM
same,GI50,[27],1.87 µM
same,TGI,[27],4.01 µM
same,GI50,[28],1.82 µM
same,TGI,[28],3.87 µM
same,GI50,[29],1.61 µM
same,TGI,[29],3.04 µM
same,GI50,[30],2.57 µM
same,TGI,[30],6.51 µM
same,GI50,[31],1.41 µM
same,TGI,[31],2.92 µM
same,GI50,[32],2.47 µM
same,TGI,[32],6.87 µM
same,GI50,[34],1.41 µM
same,TGI,[34],9.69 µM
same,GI50,[35],2 µM
same,TGI,[35],5.59 µM
same,GI50,[36],1.81 µM
same,TGI,[36],3.81 µM
same,GI50,[37],1.69 µM
same,TGI,[37],3.24 µM
same,GI50,[38],2.31 µM
same,TGI,[38],8.83 µM
same,GI50,[39],1.81 µM
same,TGI,[39],3.51 µM
same,GI50,[40],2.2 µM
same,TGI,[40],5.79 µM
same,GI50,[41],1.88 µM
same,TGI,[41],3.87 µM
same,GI50,[42],2.66 µM
same,TGI,[42],6.14 µM
same,GI50,[44],3.44 µM
same,TGI,[44],11.6 µM
same,GI50,[58],2.73 µM
same,TGI,[58],10.2 µM
same,GI50,[46],1.55 µM
same,TGI,[46],3.02 µM
same,GI50,[47],1.74 µM
same,TGI,[47],3.11 µM
same,GI50,[48],2 µM
same,TGI,[48],5.05 µM
same,GI50,[49],1.61 µM
same,TGI,[49],3.01 µM
same,GI50,[50],1.74 µM
same,TGI,[50],3.44 µM
same,GI50,[51],2 µM
same,TGI,[51],4.06 µM
same,GI50,[52],2.91 µM
same,TGI,[52],9.98 µM
same,GI50,[53],1.68 µM
same,TGI,[53],3.29 µM
same,GI50,[54],3.29 µM
same,TGI,[54],12.1 µM
same,GI50,[55],2.19 µM
same,TGI,[55],4.77 µM
same,GI50,[56],1.79 µM
same,TGI,[56],3.62 µM
